The text below walks through data of the NIST ThermoML archive (doi:10.1021/je800246v).

± gives the expanded uncertainty stated by the source.

This data set in a line: activity coefficient (dimensionless); of the first substance listed, at infinite dilution; xn = mol fraction of the nth substance listed. The conditions noted are these: 101 kPa, Liquid, Chromatography, x1 = 0.

Take `Cc1ccccc1C` [1,2-dimethylbenzene] + CCCCn1cc[n+](C)c1.F[P-](F)(F)(F)(F)F: the activity coefficient runs as follows: (315.9 K) 2.37 ± 0.25; (325.3 K) 2.21 ± 0.23; (334.8 K) 2.2 ± 0.23.

Regarding `Cc1cccc(C)c1` [1,3-dimethylbenzene] + CCCCn1cc[n+](C)c1.F[P-](F)(F)(F)(F)F, the activity coefficient was determined as 2.38 ± 0.25 (315.9 K), 2.43 ± 0.26 (325.3 K) and 2.36 ± 0.25 (334.8 K).

With `Cc1ccc(C)cc1` [1,4-dimethylbenzene] + CCCCn1cc[n+](C)c1.F[P-](F)(F)(F)(F)F, the activity coefficient is 2.27 ± 0.24 (315.9 K), 2.24 ± 0.24 (325.3 K) and 2.28 ± 0.24 (334.8 K).

As to `CC(=O)CC(C)=O` [2,4-pentanedione] + CCCCn1cc[n+](C)c1.F[P-](F)(F)(F)(F)F, the activity coefficient by setting is: (315.9 K) 1.15 ± 0.12; (325.3 K) 1.07 ± 0.11; (334.8 K) 1.03 ± 0.1.

`CC(C)CO` [2-methyl-1-propanol] + CCCCn1cc[n+](C)c1.F[P-](F)(F)(F)(F)F: the activity coefficient runs as follows: (315.9 K) 5.03 ± 0.53; (325.3 K) 4.38 ± 0.46; (334.8 K) 3.84 ± 0.4.

Regarding `CC(C)CCO` [3-methylbutan-1-ol] + CCCCn1cc[n+](C)c1.F[P-](F)(F)(F)(F)F, the activity coefficient runs as follows: (315.9 K) 7.71 ± 0.81; (325.3 K) 6.34 ± 0.67; (334.8 K) 5.2 ± 0.55.

As to `CCC(O)CC` [3-pentanol] + CCCCn1cc[n+](C)c1.F[P-](F)(F)(F)(F)F, the activity coefficient by setting is: (315.9 K) 4.7 ± 0.49; (325.3 K) 4.14 ± 0.44; (334.8 K) 3.78 ± 0.4.

Turning to `CC(C)=O` [acetone] + CCCC[n+]1ccc(C)cc1.F[B-](F)(F)F, the activity coefficient reads like this: (306.6 K) 0.995 ± 0.1; (315.9 K) 1.01 ± 0.1; (325.3 K) 1.03 ± 0.1.

With `CC(C)=O` [acetone] + CCCCn1cc[n+](C)c1.F[P-](F)(F)(F)(F)F, the activity coefficient was 0.707 ± 0.074 (315.9 K), 0.709 ± 0.074 (325.3 K) and 0.699 ± 0.073 (334.8 K).

Turning to `CCCCO` [butan-1-ol] + CCCCn1cc[n+](C)c1.F[P-](F)(F)(F)(F)F, the activity coefficient by setting is: (315.9 K) 5.59 ± 0.59; (325.3 K) 4.77 ± 0.5; (334.8 K) 4.24 ± 0.45.

On to `CCC(C)O` (stereo unspecified) [butan-2-ol] + CCCCn1cc[n+](C)c1.F[P-](F)(F)(F)(F)F, for which the activity coefficient came out at 4.29 ± 0.45 (315.9 K), 3.78 ± 0.4 (325.3 K) and 3.37 ± 0.35 (334.8 K).

Take `CCC(C)=O` [butanone] + CCCC[n+]1ccc(C)cc1.F[B-](F)(F)F: the activity coefficient by setting is: (306.6 K) 1.53 ± 0.16; (315.9 K) 1.57 ± 0.16; (325.3 K) 1.59 ± 0.17.

Regarding `CCC(C)=O` [butanone] + CCCCn1cc[n+](C)c1.F[P-](F)(F)(F)(F)F, the activity coefficient runs as follows: (315.9 K) 0.987 ± 0.1; (325.3 K) 0.99 ± 0.1; (334.8 K) 0.983 ± 0.1.

With `CCO` [ethanol] + CCCC[n+]1ccc(C)cc1.F[B-](F)(F)F, the activity coefficient (306.6 K) was determined as 1.7 ± 0.18, the activity coefficient (315.9 K) came to 1.62 ± 0.17 and the activity coefficient (325.3 K) was determined as 1.49 ± 0.15.

As to `CCO` [ethanol] + CCCCn1cc[n+](C)c1.F[P-](F)(F)(F)(F)F, the activity coefficient (315.9 K) amounted to 3.02 ± 0.32, the activity coefficient (325.3 K) came to 2.69 ± 0.28 and the activity coefficient (334.8 K) came out at 2.47 ± 0.26.

With `CO` [methanol] + CCCC[n+]1ccc(C)cc1.F[B-](F)(F)F, the activity coefficient amounted to 1.01 ± 0.1 (306.6 K), 0.98 ± 0.1 (315.9 K) and 0.907 ± 0.093 (325.3 K).

With `CO` [methanol] + CCCCn1cc[n+](C)c1.F[P-](F)(F)(F)(F)F, the activity coefficient by setting is: (315.9 K) 2.16 ± 0.23; (325.3 K) 1.95 ± 0.2; (334.8 K) 1.81 ± 0.19.

`CCCCCO` [pentan-1-ol] + CCCCn1cc[n+](C)c1.F[P-](F)(F)(F)(F)F: the activity coefficient was determined as 9.71 ± 1 (315.9 K), 8.01 ± 0.84 (325.3 K) and 6.47 ± 0.68 (334.8 K).

As for `CCCC(C)O` (stereo unspecified) [pentan-2-ol] + CCCCn1cc[n+](C)c1.F[P-](F)(F)(F)(F)F, the activity coefficient reads like this: (315.9 K) 5.66 ± 0.59; (325.3 K) 4.99 ± 0.52; (334.8 K) 4.38 ± 0.46.

Take `CCCO` [propan-1-ol] + CCCCn1cc[n+](C)c1.F[P-](F)(F)(F)(F)F: the activity coefficient by setting is: (315.9 K) 4.01 ± 0.42; (325.3 K) 3.46 ± 0.36; (334.8 K) 3.18 ± 0.33.

With `CC(C)O` [propan-2-ol] + CCCCn1cc[n+](C)c1.F[P-](F)(F)(F)(F)F, the activity coefficient was determined as 3.65 ± 0.38 (315.9 K), 3.16 ± 0.33 (325.3 K) and 2.85 ± 0.3 (334.8 K).

Take `Cc1ccccc1` [toluene] + CCCCn1cc[n+](C)c1.F[P-](F)(F)(F)(F)F: the activity coefficient runs as follows: (315.9 K) 1.71 ± 0.18; (325.3 K) 1.59 ± 0.17; (334.8 K) 1.71 ± 0.18.
